According to patent US20110281804A1, “PEPTIDIC AND PEPTIDOMIMETIC COMPOUNDS FOR REGULATING AUTOPHAGY” (FONDAZIONE SANTA LUCIA, priority 2008, published 2011):

What was measured:
AMBRA1-DIC interaction = experiment: Co-immunoprecipitation of AMBRA1 with dynein intermediate chain (DIC) after microtubule disruption; assay type: cell-based, human; conditions: drugs which interfere with microtubule polymerisation
Protocol: To this end, coimmunoprecipitation experiments were performed in 2F cells, using an antibody specific for the dynein intermediate chain (DIC). It was observed that, under control conditions, AMBRA1 is associated with DIC and is therefore part of the wider dynein machinery (FIG. 2b, third lane). […] DIC immunodepletion experiments confirmed that AMBRA1 is still associated with DLC1 after being released from DIC. On the other hand, only a fraction of DLC1 interacts with AMBRA1, since most DLC1 is still present in the complex, where it plays alternative functions (FIG. 2b).
It was then checked whether disruption of the microtubule network could interfere with the dynamics of AMBRA1 binding to the dynein motor complex.
In immunoprecipitation experiments, cells or tissues were lysed in HEMG buffer (25 mM Hepes pH 8.0, 100 mM NaCl, 25 mM MgCl2, 0.5% Triton X-100, 0.1 mM EDTA 10% glycerol) plus protease and phosphatase inhibitors (Protease inhibitor cocktail plus 1mM Sodium Fluoride, 1 mM Sodium orthovanadate, 1 mM Sodium molibdate; Sigma-Aldrich). […]

MyD88 = MyD88 (Homo sapiens, UniProt Q99836); conditions: Loiarro et al., J. Leukocyte Biology 2007; cited from earlier work
Sequence of MyD88 (Q99836 whole entry, species assumed): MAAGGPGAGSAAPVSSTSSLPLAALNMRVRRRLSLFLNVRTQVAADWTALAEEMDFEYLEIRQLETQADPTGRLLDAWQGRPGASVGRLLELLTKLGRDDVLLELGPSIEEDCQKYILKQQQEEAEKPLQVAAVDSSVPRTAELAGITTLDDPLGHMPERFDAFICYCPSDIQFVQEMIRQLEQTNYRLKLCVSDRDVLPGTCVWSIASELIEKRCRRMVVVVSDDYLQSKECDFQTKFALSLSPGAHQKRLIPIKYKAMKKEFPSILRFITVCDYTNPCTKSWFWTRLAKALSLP

HEK293 cells = experiment: Autophagy induction by peptides in HEK293 cells, Western blot of LC3 and p62; assay type: cell-based; conditions: 1-16 hours; for level of autophagy induced by the treatment: peptide 100-200 μM in culture medium, Western blot of LC3 and p62
Description: In order to deregulate the AMBRA1-DLC1 interaction, three peptides (SEQ ID NO:1, SEQ ID NO:2 and SEQ ID NO:3) were selected for their likelihood to maintain the α-helix structure. SEQ ID NO:3 and SEQ ID NO:1 presented substitutions of the neutral residues of leucine into lysine, to increase the charge of the peptides (FIG. 5). The three peptides were synthesized in vitro with the addition of 11 arginine residues at the N-terminus and they were covalently conjugated with the FITC fluorochrome. The arginine residues allow an efficient incorporation of the peptides within the cells, whereas the FITC allows visualization of the peptides inside the cells and permit to monitor their stability upon time. Increasing doses of the peptides, respectively SEQ ID NO:3, SEQ ID NO:1 and SEQ ID NO:2 (100-200 μM) were added to the culture medium of HEK293 cells for increasing time (1-16 hours). The level of autophagy induced by the treatment was monitored by Western blot analyses of known markers of this process, such as LC3 and p62. […] Although limited, this effect is somewhat more desirable than stronger effects, because it avoids massive autophagy that would likely results in cell death in vivo.
Proteins were separated on NuPAGE Bis-Tris gel (Invitrogen) and electroblotted onto nitrocellulose (Protran, Schleicher & Schuell) or PVDF (Millipore) membranes. Blots were incubated with primary antibodies in 5% non-fat dry milk in TBS plus 0,1% Tween20 overnight at 4° C. Detection was achieved using horseradish peroxidase-conjugate secondary antibody (Biorad) and visualised with ECL plus (Amersham Bioscience).

[1] = biological target: AMBRA1 full length (human, wild type) (UniProt Q9C0C7)
Sequence of AMBRA1 full length (human, wild type) (Q9C0C7 other isoform, or with tags, fused parts or gaps): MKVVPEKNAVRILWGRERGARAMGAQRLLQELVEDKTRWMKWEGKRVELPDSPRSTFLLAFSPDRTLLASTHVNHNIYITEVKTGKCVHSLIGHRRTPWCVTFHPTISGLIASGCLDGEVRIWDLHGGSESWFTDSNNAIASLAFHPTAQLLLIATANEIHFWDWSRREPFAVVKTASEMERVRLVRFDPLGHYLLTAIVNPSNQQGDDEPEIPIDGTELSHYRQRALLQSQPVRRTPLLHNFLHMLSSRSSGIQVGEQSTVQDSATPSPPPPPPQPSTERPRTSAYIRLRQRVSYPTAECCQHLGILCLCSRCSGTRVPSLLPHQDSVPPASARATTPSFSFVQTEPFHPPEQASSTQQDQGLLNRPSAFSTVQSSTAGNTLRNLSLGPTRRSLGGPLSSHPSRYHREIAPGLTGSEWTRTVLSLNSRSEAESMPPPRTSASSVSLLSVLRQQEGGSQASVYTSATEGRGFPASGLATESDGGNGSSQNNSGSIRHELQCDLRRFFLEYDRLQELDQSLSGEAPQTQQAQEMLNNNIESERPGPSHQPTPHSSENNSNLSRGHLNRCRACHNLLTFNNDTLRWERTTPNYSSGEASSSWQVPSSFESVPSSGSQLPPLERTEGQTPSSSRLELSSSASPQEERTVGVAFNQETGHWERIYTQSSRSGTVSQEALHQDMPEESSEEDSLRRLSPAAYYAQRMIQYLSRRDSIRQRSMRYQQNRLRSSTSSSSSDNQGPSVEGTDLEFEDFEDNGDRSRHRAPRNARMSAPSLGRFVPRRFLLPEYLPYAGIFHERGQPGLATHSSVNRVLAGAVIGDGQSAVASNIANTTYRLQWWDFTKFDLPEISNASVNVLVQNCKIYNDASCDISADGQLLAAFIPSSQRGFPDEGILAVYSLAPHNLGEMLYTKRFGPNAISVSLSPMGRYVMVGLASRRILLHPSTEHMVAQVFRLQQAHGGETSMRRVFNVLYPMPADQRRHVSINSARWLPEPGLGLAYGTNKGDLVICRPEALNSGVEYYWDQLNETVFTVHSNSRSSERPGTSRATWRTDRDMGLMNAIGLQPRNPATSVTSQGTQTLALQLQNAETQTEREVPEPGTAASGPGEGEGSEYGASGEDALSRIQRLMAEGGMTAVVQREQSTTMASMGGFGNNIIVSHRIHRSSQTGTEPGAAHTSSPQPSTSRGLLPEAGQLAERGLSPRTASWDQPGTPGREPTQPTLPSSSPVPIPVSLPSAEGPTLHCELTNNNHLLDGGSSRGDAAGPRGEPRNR

| Compound | AMBRA1-DIC interaction (AMBRA1-DIC interaction) | level of autophagy induced by the treatment (HEK293 cells) | further results |
| --- | --- | --- | --- |
| COC(=O)Nc1nc2ccc(C(=O)c3cccs3)cc2[nH]1 [Nocodazole] | did not impair |  |  |
| NC(=O)[C@H]1CCS[C@@H]2C[C@]3(CCCN3C(=O)Cc3ccc(NC(=O)COc4ccc(Cl)cc4Cl)cc3)C(=O)N12 [ST2825] |  |  | activity and specificity of inhibition compared with the original MyD88 inhibitory peptide (MyD88): maintained the same activity and specificity of inhibition |
| CC[C@]1(O)C[C@@H]2CN(CCc3c([nH]c4ccccc34)[C@@](C(=O)OC)(c3cc4c(cc3OC)N(C)[C@H]3[C@@](O)(C(=O)OC)[C@H](OC(C)=O)[C@]5(CC)C=CCN6CC[C@]43[C@@H]65)C2)C1 [Vinblastine] | did not impair |  |  |
| SEQ ID NO:1: Peptide with TQT triplet followed by α-helix residues; leucine residues substituted into lysine to increase charge (SQGTQTKAKQK; listed as Homo sapiens) |  | induced an increase in autophagy | p62 protein levels (HEK293 cells; 100-200 μM, Western blot (FIG. 6A)): decrease; shorter isoform of LC3 (HEK293 cells; 100-200 μM, Western blot (data not shown)): increase |
| SEQ ID NO:3: Peptide selected to maintain α-helix structure; leucine residues substituted into lysine to increase charge (TQTKAKQKQNAETQTER; listed as Homo sapiens) |  | not so effective at the doses used |  |
| ULK1 wild type, myc-tagged (immunopurified complex) |  |  | in vitro kinase assay (32P labelling, autoradiography) [1]: AMBRA1 is phosphorylated by an ULK1 immunopurified complex |
